In US8192962B2, “Processes for detecting toxic substances” (Daikin Industries, Ltd., priority 2001, dated 2012):

Test system: Genes belonging to other category
Experiment: DNA chip mRNA expression in yeast, genes belonging to other category (Table 9)
Type: cell-based, Saccharomyces cerevisiae S288C
Procedure, shortened: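 In this screen, yeast in logarithmic growth are challenged for two hours with a toxic substance at a non-lethal inhibitory concentration. Their mRNA, converted to Cy3- or Cy5-labeled cDNA, hybridizes at 65° C. to a chip spanning every yeast gene, and expression is expressed as a ratio to untreated cells.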

Q: How did the “The level of expressed mRNA in the presence of chemical substance/The level of expressed mRNA in the absence of chemical substance” value (yeast gene YJR058C) turn out when `CN(C)C(=S)SSC(=S)N(C)C` [(10), Tetramethylthiuram disulfide] was run?
A: The value was 2.6.

Q: And the “The level of expressed mRNA in the presence of chemical substance/The level of expressed mRNA in the absence of chemical substance” value (yeast gene YJR086W)?
A: Its value is 1.1.

Q: And the “The level of expressed mRNA in the presence of chemical substance/The level of expressed mRNA in the absence of chemical substance” value (yeast gene YJR110W)?
A: The value was 2.3.

Q: What about the “The level of expressed mRNA in the presence of chemical substance/The level of expressed mRNA in the absence of chemical substance” value (yeast gene YJR123W) of the same compound?
A: The value was 0.5.

Q: And the “The level of expressed mRNA in the presence of chemical substance/The level of expressed mRNA in the absence of chemical substance” value (yeast gene YKL007W)?
A: The value was 2.4.

Q: What about the “The level of expressed mRNA in the presence of chemical substance/The level of expressed mRNA in the absence of chemical substance” value (yeast gene YKL008C) of the same compound?
A: The value was 0.4.

Q: And the “The level of expressed mRNA in the presence of chemical substance/The level of expressed mRNA in the absence of chemical substance” value (yeast gene YKL013C)?
A: The value was 1.4.

Q: And the “The level of expressed mRNA in the presence of chemical substance/The level of expressed mRNA in the absence of chemical substance” value (yeast gene YKL039W)?
A: The value was 3.3.

Q: What about the “The level of expressed mRNA in the presence of chemical substance/The level of expressed mRNA in the absence of chemical substance” value (yeast gene YKL041W) of the same compound?
A: Its value is 1.5.

Q: What about the “The level of expressed mRNA in the presence of chemical substance/The level of expressed mRNA in the absence of chemical substance” value (yeast gene YKL079W) of the same compound?
A: The value was 2.0.

Q: And the “The level of expressed mRNA in the presence of chemical substance/The level of expressed mRNA in the absence of chemical substance” value (yeast gene YKL096W)?
A: Its value is 0.5.

Q: And the “The level of expressed mRNA in the presence of chemical substance/The level of expressed mRNA in the absence of chemical substance” value (yeast gene YKL117W)?
A: Its value is 2.1.

Q: And the “The level of expressed mRNA in the presence of chemical substance/The level of expressed mRNA in the absence of chemical substance” value (yeast gene YKL139W)?
A: The value was 1.5.

Q: What about the “The level of expressed mRNA in the presence of chemical substance/The level of expressed mRNA in the absence of chemical substance” value (yeast gene YKL165C) of the same compound?
A: Its value is 0.4.

Q: And the “The level of expressed mRNA in the presence of chemical substance/The level of expressed mRNA in the absence of chemical substance” value (yeast gene YKL171W)?
A: The value was 1.8.

Q: And the “The level of expressed mRNA in the presence of chemical substance/The level of expressed mRNA in the absence of chemical substance” value (yeast gene YKL193C)?
A: Its value is 1.6.

Q: And the “The level of expressed mRNA in the presence of chemical substance/The level of expressed mRNA in the absence of chemical substance” value (yeast gene YKR014C)?
A: Its value is 2.0.

Q: And the “The level of expressed mRNA in the presence of chemical substance/The level of expressed mRNA in the absence of chemical substance” value (yeast gene YKR098C)?
A: Its value is 2.7.

Q: And the “The level of expressed mRNA in the presence of chemical substance/The level of expressed mRNA in the absence of chemical substance” value (yeast gene YLL050C)?
A: The value was 1.0.

Q: What about the “The level of expressed mRNA in the presence of chemical substance/The level of expressed mRNA in the absence of chemical substance” value (yeast gene YLL051C) of the same compound?
A: Its value is 1.8.

Q: What about the “The level of expressed mRNA in the presence of chemical substance/The level of expressed mRNA in the absence of chemical substance” value (yeast gene YLR120C) of the same compound?
A: The value was 1.6.

Q: And the “The level of expressed mRNA in the presence of chemical substance/The level of expressed mRNA in the absence of chemical substance” value (yeast gene YLR121C)?
A: The value was 2.0.

Q: And the “The level of expressed mRNA in the presence of chemical substance/The level of expressed mRNA in the absence of chemical substance” value (yeast gene YLR136C)?
A: The value was 6.0.

Q: What about the “The level of expressed mRNA in the presence of chemical substance/The level of expressed mRNA in the absence of chemical substance” value (yeast gene YLR178C) of the same compound?
A: Its value is 4.1.

Q: What about the “The level of expressed mRNA in the presence of chemical substance/The level of expressed mRNA in the absence of chemical substance” value (yeast gene YLR200W) of the same compound?
A: The value was 2.6.

Q: And the “The level of expressed mRNA in the presence of chemical substance/The level of expressed mRNA in the absence of chemical substance” value (yeast gene YLR250W)?
A: The value was 2.4.

Q: What about the “The level of expressed mRNA in the presence of chemical substance/The level of expressed mRNA in the absence of chemical substance” value (yeast gene YLR266C) of the same compound?
A: Its value is 2.6.

Q: And the “The level of expressed mRNA in the presence of chemical substance/The level of expressed mRNA in the absence of chemical substance” value (yeast gene YLR327C)?
A: The value was 8.3.

Q: What about the “The level of expressed mRNA in the presence of chemical substance/The level of expressed mRNA in the absence of chemical substance” value (yeast gene YLR340W) of the same compound?
A: Its value is 0.5.

Q: What about the “The level of expressed mRNA in the presence of chemical substance/The level of expressed mRNA in the absence of chemical substance” value (yeast gene YLR356W) of the same compound?
A: The value was 1.6.

Q: And the “The level of expressed mRNA in the presence of chemical substance/The level of expressed mRNA in the absence of chemical substance” value (yeast gene YLR362W)?
A: Its value is 3.3.

Q: What about the “The level of expressed mRNA in the presence of chemical substance/The level of expressed mRNA in the absence of chemical substance” value (yeast gene YLR391W) of the same compound?
A: The value was 0.7.

Q: And the “The level of expressed mRNA in the presence of chemical substance/The level of expressed mRNA in the absence of chemical substance” value (yeast gene YLR423C)?
A: Its value is 1.0.

Q: What about the “The level of expressed mRNA in the presence of chemical substance/The level of expressed mRNA in the absence of chemical substance” value (yeast gene YLR429W) of the same compound?
A: Its value is 1.3.

Q: What about the “The level of expressed mRNA in the presence of chemical substance/The level of expressed mRNA in the absence of chemical substance” value (yeast gene YML130C) of the same compound?
A: The value was 4.2.

Q: And the “The level of expressed mRNA in the presence of chemical substance/The level of expressed mRNA in the absence of chemical substance” value (yeast gene YMR004W)?
A: Its value is 3.4.

Q: And the “The level of expressed mRNA in the presence of chemical substance/The level of expressed mRNA in the absence of chemical substance” value (yeast gene YMR094W)?
A: The value was 0.9.

Q: And the “The level of expressed mRNA in the presence of chemical substance/The level of expressed mRNA in the absence of chemical substance” value (yeast gene YMR104C)?
A: The value was 3.2.

Q: And the “The level of expressed mRNA in the presence of chemical substance/The level of expressed mRNA in the absence of chemical substance” value (yeast gene YMR110C)?
A: The value was 1.6.

Q: And the “The level of expressed mRNA in the presence of chemical substance/The level of expressed mRNA in the absence of chemical substance” value (yeast gene YMR214W)?
A: The value was 1.0.

Q: And the “The level of expressed mRNA in the presence of chemical substance/The level of expressed mRNA in the absence of chemical substance” value (yeast gene YMR219W)?
A: Its value is 0.9.

Q: What about the “The level of expressed mRNA in the presence of chemical substance/The level of expressed mRNA in the absence of chemical substance” value (yeast gene YMR226C) of the same compound?
A: Its value is 2.2.

Q: What about the “The level of expressed mRNA in the presence of chemical substance/The level of expressed mRNA in the absence of chemical substance” value (yeast gene YMR255W) of the same compound?
A: Its value is 2.4.

Q: What about the “The level of expressed mRNA in the presence of chemical substance/The level of expressed mRNA in the absence of chemical substance” value (yeast gene YMR275C) of the same compound?
A: Its value is 2.1.

Q: What about the “The level of expressed mRNA in the presence of chemical substance/The level of expressed mRNA in the absence of chemical substance” value (yeast gene YMR276W) of the same compound?
A: The value was 1.7.

Q: What about the “The level of expressed mRNA in the presence of chemical substance/The level of expressed mRNA in the absence of chemical substance” value (yeast gene YMR297W) of the same compound?
A: The value was 1.0.
